Test results taken from patent publication US20230172940A1, “METHODS OF EXTENDING LIFESPAN BY ADMINISTERING FERROPTOSIS INHIBITORS” (COLLABORATIVE MEDICINAL DEVELOPMENT, LLC, priority 2020, published 2023).

How the values were obtained:
[1] = test system: OP50 E. coli; assay: Bacterial growth assay (OD600); format: cell-based, Escherichia coli; details: 50 or 100 μg/mL; after 12 hours, 37° C
Experimental: The effects of test compounds on growth of the OP50 E. coli feed was assayed using optical density at 600 nm (OD600). Using standard microtitre plates, replicate wells of 200 μL of sterile Luria broth were inoculated with 2 μL of an overnight OP50 culture in addition to the stated final concentrations of ampicillin (Amp), Lip-1 and SIH. OD600 measures were taken after 12 hours in an EnSpire (PerkinElmer) spectrophotometric plate reader preset to 37° C., with 30 sec of 200 rpm orbital shaking every 10 minutes.
Data was averaged across duplicate experiments, each with eight replicate wells per treatment where a baseline of Luria broth without an inoculate was subtracted.

[2] = test system: C. elegans; details: iron chelators, literature reports; cited from earlier work

## CC1(C)S[C@@H]2[C@H](NC(=O)[C@H](N)c3ccccc3)C(=O)N2[C@H]1C(=O)O [ampicillin]
[1]
  growth of OP50 E. coli (OD600): completely suppressed bacterial growth

## Cc1c(O)c(=O)ccn1C [deferiprone]
[2]
  effect on C. elegans lifespan as reported: not to impact C. elegans lifespan

## O=C(O)CN(CCN(CC(=O)O)CC(=O)O)CC(=O)O.[Ca] [CaEDTA, calcium-ethylenediaminetetraacetic acid]
[2]
  effect on C. elegans lifespan as reported: minor (undisclosed) increase in lifespan
